Holding throughout (experiment): NCI anticancer screen, dose series, 48 h
Assay [1] relates to UO-31.
Assay [2] has as its system CAKI-1.
Assay [3] concerns EKVX.
Assay [4] concerns LOX IMVI.
Assay [5] concerns U-251.
Assay [6] has as its system K562.
The subject of assay [7] is OVCAR-4.
Assay [8] concerns SK-MEL-5.
In assay [9] the test system is HL-60.
The test system of assay [10] is A549.
The test system of assay [11] is NCI-H226.
The subject of assay [12] is SF-295.
Assay [13] deals with SNB-75.
For assay [14], the system named is OVCAR-8.
Assay [15] concerns SN12C.
Assay [16] has as its system SF-268.
Assay [17] relates to UACC-62.
In assay [18] the test system is Malme-3M.
In assay [19] the test system is SK-MEL-28.
In assay [20] the test system is KM12.

From ChEMBL document CHEMBL1201862, “PubChem BioAssay data set” (2004) come the findings set out here.

Each structure is given as a SMILES string.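 Exposure lasted 48 hours, with cells grown in 96-well plates and compounds tested at five concentrations. GI50: concentration for 50% inhibition of growth.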 Activity calls are given as the source filed them. Rule as the data show it: active = GI50 up to about 1.1 µM and inactive = higher.

Turning to `COc1ccc(C(=O)Cc2ccc(Cl)cc2)cc1OC`, the GI50 in [1], in assay [2], in [3], in assay [4], in assay [5] and in assay [6] was > 100 µM (inactive) in each case. Further, the GI50 in [7], in assay [8], in [9], in assay [10], in [11] and in assay [12] was > 100 µM (inactive) each time. The GI50 is 34.4 µM (inactive) in assay [13]; > 100 µM (inactive) in [14]; > 100 µM (inactive) in [15]; > 100 µM (inactive) in [16]; > 100 µM (inactive) in assay [17]; > 100 µM (inactive) in [18].

For `Fc1ccc(C(OCCN2CCC3CCC(C2)N3Cc2cc3ccccc3[nH]2)c2ccc(F)cc2)cc1` (configuration not stated), the GI50 is 1.61 µM (inactive) in [19]; 2 µM (inactive) in assay [1]; 1.71 µM (inactive) in assay [20]; 2.23 µM (inactive) in [2]; 1.7 µM (inactive) in assay [3]; 1.79 µM (inactive) in assay [4]. In addition, the GI50 in assay [5] is 1.87 µM (inactive); in [6], 1.13 µM (inactive); in assay [7], 1.95 µM (inactive); in assay [8], 1.72 µM (inactive); in assay [9] it was 1.58 µM (inactive); in [10], 2.01 µM (inactive). In addition, the GI50 was 1.83 µM (inactive) in assay [11]; 1.96 µM (inactive) in assay [12]; 1.89 µM (inactive) in assay [13]; 1.73 µM (inactive) in [14]; 1.68 µM (inactive) in assay [15]; 2.04 µM (inactive) in [16]. The values for the GI50 in [17] and in assay [18] were 2.08 µM (inactive) and 1.58 µM (inactive), respectively.

With `O=C1CCCCC[C@]12SC[C@H]1CON=C12`, the GI50 in assay [19] is 27.8 µM (inactive); in [1] it was 26.9 µM (inactive); in assay [20], 60.3 µM (inactive); in assay [2], 22.2 µM (inactive); in [3], 31 µM (inactive); in assay [4], 35.2 µM (inactive). In addition, the GI50 is 12.3 µM (inactive) in [5]; 42.6 µM (inactive) in assay [6]; 73.8 µM (inactive) in [7]; > 100 µM (inactive) in assay [8]; 25.9 µM (inactive) in [9]; 37.1 µM (inactive) in assay [10]. The GI50 in assay [11] was > 100 µM (inactive); in assay [12], > 100 µM (inactive); in assay [14], 65.8 µM (inactive); in assay [15], 23.1 µM (inactive); in assay [17] it was 14.5 µM (inactive); in assay [18], 18.8 µM (inactive).

On to `CC(=O)NNc1nc(C)c(C(=O)NNC(=O)C(=O)Nc2cccc(C(C)=O)c2)s1`, for which the GI50 in assay [19] is 19.7 µM (inactive); in assay [1], 17.1 µM (inactive); in assay [20] it was 24.7 µM (inactive); in assay [2], 16.4 µM (inactive); in assay [3], 42.7 µM (inactive); in assay [4], 21.2 µM (inactive). Also, the GI50 is 26.6 µM (inactive) in assay [5]; 32.1 µM (inactive) in assay [6]; 25.2 µM (inactive) in assay [7]; 95.3 µM (inactive) in assay [8]; 25.5 µM (inactive) in assay [9]; 34.8 µM (inactive) in assay [10]. The GI50 in assay [11] was 22.8 µM (inactive); in [12], 31.4 µM (inactive); in assay [13] it was 17.3 µM (inactive); in [14], 20 µM (inactive); in assay [15], 15.9 µM (inactive); in assay [16] it was 21.5 µM (inactive). In addition, the GI50 in assay [17] was 16.3 µM (inactive).

In the case of `O=C1NCN(c2ccccc2)C12CCN(CCCN1CCN(CCOC(c3ccc(F)cc3)c3ccc(F)cc3)CC1)CC2`, the GI50 in assay [19] was 2.47 µM (inactive); in assay [1], 1.74 µM (inactive); in [20] it was 2.43 µM (inactive); in assay [2] it was 2.12 µM (inactive); in assay [3], 2.88 µM (inactive); in assay [4], 1.86 µM (inactive). The GI50 is 1.92 µM (inactive) in [5]; 0.91 µM (active) in assay [6]; 2.92 µM (inactive) in assay [7]; 1.69 µM (inactive) in [8]; 1.48 µM (inactive) in assay [9]; 2.03 µM (inactive) in [10]. In addition, the GI50 was 1.86 µM (inactive) in [11]; 1.83 µM (inactive) in [12]; 2.15 µM (inactive) in assay [14]; 1.96 µM (inactive) in assay [15]; 1.87 µM (inactive) in assay [16]; 2.05 µM (inactive) in assay [17]. Moreover, the GI50 in [18] is 1.37 µM (inactive).

Regarding `CC1(C)C(=O)c2ccccc2OC1N1CCN(C2Oc3ccccc3C(=O)C2(C)C)CC1` (configuration not stated), the GI50 in assay [19], in assay [1], in assay [20], in assay [2], in assay [3] and in [4] was > 100 µM (inactive) throughout. In addition, the GI50 in assay [5], in [6], in assay [7], in assay [8], in assay [9] and in [11] was > 100 µM (inactive) each time. In addition, the GI50 in assay [13] is 28 µM (inactive); in [15], > 100 µM (inactive); in [16] it was > 100 µM (inactive); in assay [17], 82.6 µM (inactive); in [18], 30.3 µM (inactive).

On to `COC(=O)C1CCC(=O)N1C(=O)Cc1ccc(OC)cc1` (configuration not stated), for which the GI50 in [19], in assay [1], in [20], in assay [2], in [3] and in assay [4] was > 100 µM (inactive) each time. Further, the GI50 in assay [5], in [7], in assay [8], in [10], in assay [11] and in assay [12] was > 100 µM (inactive) throughout. For the same molecule, the GI50 in [13], in [14], in assay [15], in [16] and in assay [17] was > 100 µM (inactive) throughout.

For `Nc1nc(N)c2c(n1)NC(=O)c1c(c3ccccc3n1Cc1ccc(Cl)cc1)C2`, the GI50 is 49 µM (inactive) in assay [19]; > 100 µM (inactive) in assay [1]; 19.7 µM (inactive) in assay [2]; 33.2 µM (inactive) in [3]; 19.1 µM (inactive) in [4]; 25.8 µM (inactive) in [5]. For the same molecule, the GI50 was 25.6 µM (inactive) in [6]; 18.5 µM (inactive) in [7]; 15.3 µM (inactive) in [8]; 18 µM (inactive) in [9]; 21.1 µM (inactive) in assay [10]; 37.6 µM (inactive) in assay [11]. For the same molecule, the GI50 in assay [12] is 34.2 µM (inactive); in assay [13], 17.9 µM (inactive); in assay [14] it was 26.4 µM (inactive); in [15], 17.3 µM (inactive); in [16], 45.5 µM (inactive); in assay [17] it was 45.7 µM (inactive). The GI50 in assay [18] was 55.3 µM (inactive).

For the molecule `c1ccc(/N=C2\S/C(=N\C3CCCCC3)N(C3CCCCC3)\C2=N/c2ccccc2)cc1`, the GI50 in assay [19], in [1], in [20], in assay [2], in [5] and in [6] was > 100 µM (inactive) in each case. Also, the GI50 in assay [8] is 80.4 µM (inactive); in assay [9] it was > 100 µM (inactive); in [11], > 100 µM (inactive); in assay [12], > 100 µM (inactive); in assay [13] it was > 100 µM (inactive); in assay [14], > 100 µM (inactive). Further, the GI50 in [15], in assay [17] and in assay [18] was > 100 µM (inactive) in each case.

Take `c1ccc(COC2(OCc3ccccc3)CC3OC2C2NN=NC32)cc1` (configuration not stated): the GI50 in assay [19] is 18.8 µM (inactive); in assay [1], 29.7 µM (inactive); in [20], 28.7 µM (inactive); in assay [2] it was 44 µM (inactive); in assay [4], 16.8 µM (inactive); in assay [5] it was 18.1 µM (inactive). Besides, the GI50 is 15.6 µM (inactive) in assay [6]; 17.9 µM (inactive) in assay [7]; 17.1 µM (inactive) in [8]; 11.1 µM (inactive) in assay [9]; 57.1 µM (inactive) in [10]; 18.1 µM (inactive) in [11]. The GI50 in assay [12] was 23.1 µM (inactive); in [13], 16.9 µM (inactive); in [15] it was > 10 µM (inactive); in assay [16] it was 22.1 µM (inactive); in assay [17] it was 21.3 µM (inactive); in [18], 22.4 µM (inactive).

With `COc1ccc(C2C(Cl)C(=O)N2NC(=O)c2ccccc2O)cc1` (configuration not stated), the GI50 in assay [19], in assay [1], in assay [20], in [3], in assay [5] and in [6] was > 100 µM (inactive) each time. Further, the GI50 in assay [7], in assay [8], in assay [9], in assay [10], in [12] and in assay [13] was > 100 µM (inactive) each time. For the same molecule, the GI50 in assay [14], in [15], in assay [16], in assay [17] and in assay [18] was > 100 µM (inactive) throughout.
